Test systems include ACHN renal; HOP-92 NSCLC; M14 melanoma; SNB-75 CNS; NCI-H226 lung; SW-620 colon; SK-OV-3 ovarian; HCT-116 colon; OVCAR-5 ovarian; COLO 205 colon.
Assay in all cases: growth of human tumour cells (NCI), 48 h

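Interpolation was linear, between the two tested concentrations surrounding the appropriate level; five concentrations were tested over 48 hours in 96-well plates. GI50 = concentration required for 50% inhibition of growth. At the TGI there is no net growth.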 Where only a bound is given, the exact number is not on record here.

Turning to `N.N.N.N.N.N.[I-].[Os]`, the GI50 in the assay with ACHN renal, in the assay on HOP-92 NSCLC, in the assay with M14 melanoma, in the assay with SNB-75 CNS, in the assay with NCI-H226 lung and with SW-620 colon was > 100 µM throughout. Besides, the GI50 with SK-OV-3 ovarian, with HCT-116 colon, in the assay on OVCAR-5 ovarian and in the assay with COLO 205 colon was > 100 µM in each case. Moreover, the TGI with ACHN renal, in the assay with HOP-92 NSCLC, in the assay on M14 melanoma, in the assay with SNB-75 CNS, in the assay on NCI-H226 lung and in the assay with SW-620 colon was > 100 µM throughout. The TGI in the assay on SK-OV-3 ovarian, in the assay with HCT-116 colon, with OVCAR-5 ovarian and in the assay with COLO 205 colon was > 100 µM in each case.
As for `c1cc(OCCN2CCCCCC2)ccc1CNc1ccc2nc(CCC3CCCCC3)[nH]c2c1`, the GI50 was 2.68 µM in the assay on ACHN renal; 0.836 µM with HOP-92 NSCLC; 1.72 µM with M14 melanoma; 1.5 µM in the assay on SNB-75 CNS; 1.88 µM with NCI-H226 lung; 1.87 µM in the assay on SW-620 colon. The GI50 is 2.18 µM in the assay on SK-OV-3 ovarian, 1.62 µM in the assay on HCT-116 colon, 2.48 µM with OVCAR-5 ovarian and 1.81 µM in the assay with COLO 205 colon. Besides, the TGI in the assay on ACHN renal amounted to 7.97 µM; with HOP-92 NSCLC it was 3.09 µM; in the assay with M14 melanoma, 3.32 µM; with SNB-75 CNS it was 4.52 µM; in the assay with NCI-H226 lung, 5.19 µM; with SW-620 colon, 4 µM. In addition, the TGI is 4.84 µM in the assay with SK-OV-3 ovarian, 3.14 µM with HCT-116 colon, 7.33 µM in the assay on OVCAR-5 ovarian and 3.57 µM in the assay on COLO 205 colon.
With `CC1(C)OC(C(N)=O)=C(C(N)=O)O1`, the TGI in the assay with ACHN renal, in the assay with HOP-92 NSCLC, with M14 melanoma, in the assay on SNB-75 CNS, in the assay with NCI-H226 lung and in the assay on SW-620 colon was > 100 µM in each case. The TGI in the assay on SK-OV-3 ovarian, in the assay on HCT-116 colon, in the assay on OVCAR-5 ovarian and with COLO 205 colon was > 100 µM in each case.
As to `CCOC(=O)c1c(C)nc2ccc(Cl)cc2c1-c1ccccc1`, the GI50 was 17.1 µM with ACHN renal; 1.52 µM in the assay with HOP-92 NSCLC; 18.7 µM with M14 melanoma; 21.8 µM with SNB-75 CNS; 19.2 µM with NCI-H226 lung; 19.2 µM in the assay on SW-620 colon. The GI50 in the assay on SK-OV-3 ovarian is 19.1 µM; with HCT-116 colon it was 12.3 µM; in the assay on OVCAR-5 ovarian, 19.8 µM; in the assay on COLO 205 colon, 17.9 µM. For the same compound, the TGI in the assay on ACHN renal was found to be 35 µM; in the assay with HOP-92 NSCLC, 20.8 µM; in the assay on M14 melanoma, 52.3 µM; in the assay with SNB-75 CNS, 64.9 µM; with NCI-H226 lung, 39.7 µM; in the assay with SW-620 colon, 47 µM. The TGI in the assay on SK-OV-3 ovarian amounted to 45.6 µM; in the assay on HCT-116 colon, 28.8 µM; in the assay with OVCAR-5 ovarian it was 44.6 µM; in the assay on COLO 205 colon, 53.4 µM.
With `COC(=O)C1(C(=O)OC)CC2c3c(c4ccccc4n3C)CC(C1=O)N2Cc1ccccc1` (stereo not given), the TGI with ACHN renal was > 100 µM; in the assay with HOP-92 NSCLC it was > 100 µM; with M14 melanoma it was > 100 µM; in the assay on SNB-75 CNS, 92 µM; in the assay on NCI-H226 lung it was > 100 µM; in the assay on SW-620 colon, > 100 µM. In addition, the TGI with SK-OV-3 ovarian, with HCT-116 colon, in the assay on OVCAR-5 ovarian and with COLO 205 colon was > 100 µM throughout.
As for `Clc1cc(Cl)c(Cl)c(-c2nc(-c3cccnc3)cs2)c1`, the GI50 in the assay on ACHN renal is 22.2 µM; in the assay on HOP-92 NSCLC, 15.4 µM; in the assay on M14 melanoma, 4.47 µM; in the assay with SNB-75 CNS, 23 µM; with NCI-H226 lung, 27.4 µM; in the assay with SW-620 colon, 9.34 µM. The GI50 in the assay with SK-OV-3 ovarian was > 100 µM; in the assay on HCT-116 colon it was 5.3 µM; in the assay on OVCAR-5 ovarian it was 32.3 µM; with COLO 205 colon, 13.6 µM. In addition, the TGI in the assay on ACHN renal is 72.3 µM; in the assay with HOP-92 NSCLC it was 48.1 µM; in the assay on M14 melanoma, > 100 µM; in the assay on SNB-75 CNS, 80.6 µM; in the assay on NCI-H226 lung it was 85.8 µM; in the assay with SW-620 colon, 23.6 µM. Moreover, the TGI is > 100 µM in the assay on SK-OV-3 ovarian, > 100 µM in the assay on HCT-116 colon, 92.8 µM in the assay with OVCAR-5 ovarian and 41.4 µM in the assay with COLO 205 colon.
Turning to `C/C=C/C=N/N(C(=O)c1cc([N+](=O)[O-])cc([N+](=O)[O-])c1)C1=NC(c2ccccc2)C(c2ccccc2)=NN1` (stereo not given), the TGI in the assay on ACHN renal is > 100 µM; with HOP-92 NSCLC it was 62.2 µM; in the assay with M14 melanoma, > 100 µM; in the assay on SNB-75 CNS, > 100 µM; in the assay with NCI-H226 lung, > 100 µM; in the assay on SW-620 colon it was > 100 µM. Besides, the TGI was > 100 µM with SK-OV-3 ovarian, 84.8 µM in the assay on HCT-116 colon, > 100 µM with OVCAR-5 ovarian and 75 µM with COLO 205 colon.
For the compound `O=C(O)CC(Nc1ccccc1)C(=O)O` (stereo not given), the TGI in the assay with ACHN renal, with HOP-92 NSCLC, in the assay on M14 melanoma, in the assay on SNB-75 CNS, in the assay with NCI-H226 lung and in the assay with SW-620 colon was > 100 µM throughout. Moreover, the TGI with SK-OV-3 ovarian, in the assay with HCT-116 colon, in the assay on OVCAR-5 ovarian and with COLO 205 colon was > 100 µM each time.
For the compound `CC(=O)OCc1cc(OC(C)=O)cnc1COC(C)=O`, the TGI in the assay with ACHN renal, in the assay with HOP-92 NSCLC, in the assay with M14 melanoma, with SNB-75 CNS, with NCI-H226 lung and with SW-620 colon was > 100 µM each time. In addition, the TGI with SK-OV-3 ovarian, in the assay on HCT-116 colon, in the assay with OVCAR-5 ovarian and in the assay with COLO 205 colon was > 100 µM in each case.
On to `Cc1ccccc1NC(=O)C(=O)C(c1cnc2ccc([N+](=O)[O-])cc2n1)[N+](=O)[O-]` (stereo not given), for which the TGI in the assay with ACHN renal, in the assay with HOP-92 NSCLC, with M14 melanoma, with SNB-75 CNS, in the assay with NCI-H226 lung and in the assay with SW-620 colon was > 100 µM throughout. In addition, the TGI in the assay on SK-OV-3 ovarian, in the assay with HCT-116 colon, in the assay on OVCAR-5 ovarian and in the assay on COLO 205 colon was > 100 µM in each case.

Values taken from PubChem BioAssay (NCI).
